Patent US10245262B2, “Immunological reagents and uses therefor” (THE UNIVERSITY OF QUEENSLAND, priority 2014, dated 2019)
Like-named read-outs stand apart in the source and are kept apart here. Values belong to the molecule of their own block, whether it stands above or below them.

Tests used:
[1] = biological target: T1, human MR1 (Homo sapiens, UniProt Q95460, C283S); experiment: Refolding of MR1 and β2m with ligand; type: binding
T1 construct: Soluble human MR1 a.a; made in house

[2] = system: SKW.MAIT cells; experiment: Activation of wild-type, Y95A or Y95F mutant SKW.MAIT cells with C1R cells; type: cell-based; conditions: compound added to C1R cells
Text: FIG. 4 is a graph showing MR1-Ag tetramers and MAIT activation. […] (c) EICs of m/z 315.09, or m/z 317.10. (d) (i) Activation assay and (ii) MR1 upregulation with 5-A-RU, methylglyoxal (MG), butane-2,3-dione (BD), glyoxal (G), or rRL-6-CH2OH. MFI of 26.5-PE antibody staining (e) (i) CD69 upregulation and (ii) MR1 upregulation with 5-A-RU, MG, BD, or G. MFI of 26.5-PE. (f) Activation of wild-type, Y95A, or Y95F mutant SKW.MAIT cells by 5-A-RU. Mean of triplicates with SEM. Experiments were performed at least twice (b, c, f) or 3 times (a, d, e).
Jurkat cells transduced with genes encoding a MAIT TCR comprising the TRAV1-2-TRAJ33 invariant α chain, and a TRBV6-1 β chain, or SKW cells transduced with genes encoding the TRAV1-2-TRAJ33 invariant α chain with either w.t. Tyr95 or mutated Tyr95Ala or Tyr95Phe residues, paired with a TRBV6-1 β chain, were tested for activation by co-incubation with bacterial culture supernatant or compounds and C1R antigen presenting cells expressing MR1 (CIR.MR1, with Jurkat.MAIT cells), or C1R cells (SKW.MAIT cells) for 16 hr. […] Activation of Jurkat.MAIT or SKW.MAIT cells was measured by an increase in surface CD69 expression. MR1 expression was detected on gated C1R.MR1 cells in the same assay.

[3] = system: Jurkat.MAIT cells; experiment: Activation of Jurkat.MAIT cells (CD69 upregulation) co-incubated with C1R.MR1 cells; type: cell-based; conditions: for Jurkat.MAIT activation compared to 5-A-RU added by itself: compound added with 5-A-RU to C1R.MR1 cells
Method: (§1) Jurkat cells transduced with genes encoding a MAIT TCR comprising the TRAV1-2-TRAJ33 invariant α chain, and a TRBV6-1 β chain, or SKW cells transduced with genes encoding the TRAV1-2-TRAJ33 invariant α chain with either w.t. Tyr95 or mutated Tyr95Ala or Tyr95Phe residues, paired with a TRBV6-1 β chain, were tested for activation by co-incubation with bacterial culture supernatant or compounds and C1R antigen presenting cells expressing MR1 (CIR.MR1, with Jurkat.MAIT cells), or C1R cells (SKW.MAIT cells) for 16 hr. Cells were subsequently stained with PE-Cy7-conjugated anti-CD3 (eBioscience), and APC-conjugated anti-CD69 (BD) antibodies as well as biotinylated anti-MR1 mAb 26.5 (Huang S. et al (2005)), followed by Streptavidin-PE (BD), before analysis by flow cytometry. Activation of Jurkat.MAIT or SKW.MAIT cells was measured by an increase in surface CD69 expression. MR1 expression was detected on gated C1R.MR1 cells in the same assay.

[4] = system: C1R.MR1 cells; experiment: Detection of MR1 expression on C1R.MR1 cells (mAb 26.5 staining); type: cell-based; conditions: for MR1 upregulation compared to 5-A-RU added by itself: compound added with 5-A-RU to C1R.MR1 cells
Method: as §1

[5] = for half-life: buffer
Method: FIG. 7 is a graph showing stability of 5-OP-RU (a) Reaction between 5-A-RU (0.5 mM) and methylglyoxal (3 eq) at pH 6.8, 37° C. in MilliQ water. RL-6-Me represents 6-methyl-8-D-ribityllumazine. (b) Stability of purified 5-OP-RU (65 μM) at pH 6.8 and 37° C. […] (c) Stability of purified 5-OP-RU (65 μM) at variable pH in aqueous TBS buffer (10 mM Tris, 150 mM NaCl, pH 8.0), MilliQ water (pH 6.8), or ammonium acetate buffer (20 mM, pH 5.4) at 15° C.
The purified 5-OP-RU was dissolved in aqueous TBS buffer (10 mM Tris, 150 mM NaCl, pH 8.0), MilliQ water (pH 6.8), or aqueous ammonium acetate buffer (20 mM, pH 5.4). The consumption of 5-OP-RU was immediately monitored by LCMS. The initial concentration was quantified by comparing to a standard solution of known concentration.

[6] = system: MR1; experiment: Crystal structure of MAIT TCR-MR1-Ag complexes; type: binding, human
Method: Crystals of the soluble MAIT TCR-MR1-Ag complexes were obtained using the hanging drop vapour diffusion method. The MR1-2M-5-OP-RU, MR1-2M-5-OE-RU, MR1, MR1-K43A-2M-5-OP-RU and MAIT TCR were concentrated to 4 mg/ml, mixed in a 1:1 molar ratio, then […] of a precipitant solution consisting 0.1 M bis-tris propane pH 6.3, 0.2 M sodium acetate and varying concentrations of PEG 3350 between 8-14% w/v. Crystals were observed after incubation at 20° C. for 24 hours in dark conditions and cryoprotected prior to diffraction experiments by soaking in the crystallisation condition modified with between 10-15% v/v glycerol before cooling to 100K. Diffraction images were collected at the Australian Synchrotron MX2 beamline diffracting in a C2 spacegroup to 2.50 Å, 2.10 Å and 2.20 Å for the MR1-2M-5-OP-RU, MR1-2M-5-OE-RU, and MR1-K43A-2M-5-OP-RU complexes with the MAIT TCR respectively. The data were processed using Mosflm version 7.0.9 and scaled using AIMLESS or SCALA (MR1-K43A-2M-5-OP-RU only) from the CCP4 Suite. The phase problem was solved by molecular replacement using PHASER (McCoy A. J. (2007)), using MR1 ternary complex (PDB code 4L4T) (Patel O. et al (2013)) with CDR loops and ligands removed and using the Rfree reflection set from the model. […]

[7] = system: MAIT cells; experiment: MAIT cell accumulation in lungs after intranasal S. Typhimurium infection; type: in vivo, mice; conditions: with BR509ΔribDH (10^7) i.n.; 200 μl of 1.52 μM i.v. at d1, d3, d5; day 7 post infection
[8] = system: MR1; conditions: cited from earlier work
[9] = compound added alone to C1R.MR1 cells

MR1-ligand complex on refolding MR1 with the compound alone [1]: undetectable
Molecule: Nc1c(NC[C@H](O)[C@H](O)[C@H](O)CO)[nH]c(=O)[nH]c1=O [5-A-RU, 5-amino-6-D-ribitylaminouracil]
recognition by SKW.MAIT cells with Tyr95α mutated to Ala95 or Phe95 [2]: ablated recognition | activation of Jurkat.MAIT cells [3, 9]: activation of Jurkat.MAIT cells | MR1 cell surface upregulation [4, 9]: MR1 cell surface upregulation

stability (in words) [5]: relatively unstable | binding mode in the MR1 cleft [6]: formed a Schiff base with Lys43 of MR1
Molecule: O=CC=Nc1c(NC[C@H](O)[C@H](O)[C@H](O)CO)[nH]c(=O)[nH]c1=O [5-OE-RU, 5-(2-oxoethylideneamino)-6-D-ribitylaminouracil]

Molecule: CC(=O)C=Nc1c(NC[C@H](O)[C@H](O)[C@H](O)CO)[nH]c(=O)[nH]c1=O [5-OP-RU, 5-(2-oxopropylideneamino)-6-D-ribitylaminouracil]
half-life ([5]; pH 5.4): 49 min | half-life ([5]; pH 6.8): around 2 h | binding mode in the MR1 cleft [6]: formed a Schiff base with Lys43 of MR1 | accumulation of MAIT cells in lungs [7]: accumulation is observed

Molecule: Cc1nc2c(=O)[nH]c(=O)nc-2n(C[C@H](O)[C@H](O)[C@H](O)CO)c1O [RL-6-Me-7-OH, 7-hydroxy-6-methyl-8-D-ribityllumazine]
binding mode in the MR1 cleft [8]: non-covalently bound within MR1

MR1-Ag complex on refolding MR1 in the presence of 5-A-RU and the compound [1]: failed to yield any MR1-Ag complexes
Molecule: CC(=O)C(C)=O [butane-2,3-dione]
Jurkat.MAIT activation compared to 5-A-RU added by itself [3]: nor was there an increase in Jurkat.MAIT activation | MR1 upregulation compared to 5-A-RU added by itself [4]: not enhanced

Molecule: O=CC=O [glyoxal]
MR1-Ag complex on refolding MR1 in the presence of 5-A-RU and the compound [1]: led to a correctly folded MR1-Ag complex | Jurkat.MAIT activation compared to 5-A-RU added by itself [3]: increase in Jurkat.MAIT activation | MR1 upregulation compared to 5-A-RU added by itself [4]: further increase in MR1 upregulation

MR1-Ag complex on refolding MR1 in the presence of 5-A-RU and the compound [1]: led to a correctly folded MR1-Ag complex
Molecule: CC(=O)C=O [methylglyoxal]
Jurkat.MAIT activation compared to 5-A-RU added by itself [3]: increase in Jurkat.MAIT activation | MR1 upregulation compared to 5-A-RU added by itself [4]: further increase in MR1 upregulation

Molecule: Cc1cc2nc3c(=O)[nH]c(=O)nc-3n(C[C@H](O)[C@H](O)[C@H](O)CO)c2cc1C [riboflavin]
effect of riboflavin added during culture of NZ9000 on MAIT cell activation by the supernatant ([3]; L. lactis NZ9000 supernatant, 3 μg/ml riboflavin): inhibited MAIT cell activation

Molecule: reduced 6-hydroxymethyl-8-D-ribityllumazine [rRL-6-CH2OH]
recognition by SKW.MAIT cells with Tyr95α mutated to Ala95 or Phe95 [2]: ablated recognition
